From patent publication US7297682B2, “Diphosphate salt of a 4″—substituted-9-deoxo-9 A—AZA—homoerythromycin derivatives and its pharmaceutical composition” (Pfizer Inc., priority 1999, dated 2007) come the findings set out here.

Structures can show the parent of a compound that is named as a salt.

One series in a line: physchem. The format is physicochemical. Conditions: water.
Series [1] in a line: hygroscopicity: water uptake and water content versus relative humidity (VTI, Karl Fisher). The class given is physicochemical. The procedure: The crystalline diphosphate salt gradually absorbs water to about 13% at 87% relative humidity with a rapid uptake of water to about 48% occurring at about 90% relative humidity. Thermogravametric analysis on the diphosphate salt discloses that three waters are lost by about 75° C., a fourth water is lost by about 120° C., the fifth water is lost by about 170° C., and the final three waters are lost by about 200° C. The maximum number of water molecules necessary for the stabilization of the crystalline lattice appears to be about eight. Drying the diphosphate salt in about 70° C. in air or about 45° C. in a vacuum removed the water leaving a pseudomorph.
Drying in the VTI at 20-25° C. indicated a weight loss of 10%; the dried salt gradually adsorbed water to 15% at 85% RH (relative humidity), followed by a rapid uptake to 48% at 90% RH. At 90% RH, the compound deliquesced.
The mobility of the water within the crystalline lattice is directly related to the relative humidity of the environment the diphosphate salt comes in contact with. For example, at about 87% relative humidity, the compound contains about 13% water; at 60% relative humidity the compound contains about 8% water; and at 40% relative humidity the diphosphate salt contains about 5% water (all calculations by KF).
Both the liquid crystal and the crystalline form of the diphosphate were hygroscopic. When attempts were conducted in hydrophilic solvents, the addition of 4% to 5% (v/v) water to the amorphous slurry caused the compound to crystallize as an octahydate.

The solubility is the dissolved amount per volume that the medium holds. In the case of `CCCNC[C@]1(O)C(C)OC(OC2C(C)C(=O)OC(CC)[C@@](C)(O)[C@H](O)[C@@H](C)NC[C@H](C)C[C@](C)(O)[C@H](OC3OC(C)CC(N(C)C)[C@H]3O)C2C)C[C@@]1(C)OC` (stereo partly drawn) [crystalline diphosphate salt, (2R,3S,4R,5R,8R,10R,11R,12S,13S,14R)-13-[[2,6-dideoxy-3-C-methyl-3-O-methyl-4-C-[(propylamino)methyl]-α-L-ribo-hexopryanosyl]oxy]-2-ethyl-3,4,10-trihydroxy-3,5,8,10,12,14-hexamethyl-11-[[3,4,6-trideoxy-3-(dimethylamino)-β-D-xylo-hexopyranosyl]oxy]-1-oxa-6-azacyclopentadecan-15-one diphosphate], in “physchem”, the solubility was roughly 280 mg/mL. In addition, the “water adsorbed (gradual) by dried salt” value in series [1] (after drying in the VTI at 20-25° C., at 85% RH) was 15%. Moreover, in series [1] (after drying in the VTI at 20-25° C., at 90% RH), the “rapid uptake of water by dried salt” value was 48%. For the same compound, the “water content (by KF)” value in series [1] (at 40% relative humidity) was “about 5%”; in series [1] (at 60% relative humidity) it was “about 8%”; in series [1] (at about 87% relative humidity), “about 13%”. The “water absorbed (gradual)” value in series [1] (at 87% relative humidity) was “about 13%”. Besides, in series [1] (at 90% RH), the “behaviour at high humidity” value is “deliquesced”. For the same compound, the “rapid uptake of water” value in series [1] (at about 90% relative humidity) was “about 48%”.

For the compound `CCCNC[C@]1(O)C(C)OC(OC2C(C)C(=O)OC(CC)[C@@](C)(O)[C@H](O)[C@@H](C)NC[C@H](C)C[C@](C)(O)[C@H](OC3OC(C)CC(N(C)C)[C@H]3O)C2C)C[C@@]1(C)OC` (stereo partly drawn) [liquid crystal, (2R,3S,4R,5R,8R,10R,11R,12S,13S,14R)-13-[[2,6-dideoxy-3-C-methyl-3-O-methyl-4-C-[(propylamino)methyl]-α-L-ribo-hexopryanosyl]oxy]-2-ethyl-3,4,10-trihydroxy-3,5,8,10,12,14-hexamethyl-11-[[3,4,6-trideoxy-3-(dimethylamino)-β-D-xylo-hexopyranosyl]oxy]-1-oxa-6-azacyclopentadecan-15-one diphosphate], in series [1], the hygroscopicity result was “hygroscopic”.
